For experiment [1], the system named is transcription mediated amplification reaction. As to conditions: Della-Latta et al. 1999; cited from earlier work.
The test system of the next experiment is ligase chain reaction. The note with it: Notomi et al. 1998; cited from earlier work.
Experiment [2] concerns PCR of whole genomic mycobacterial DNA (Taq polymerase, primers Tb11 and Tb12). The experiment in a line: Reversible inhibition of PCR amplification by DNA binding ligand, product analyzed by gel electrophoresis. It is filed as biochemical. On the procedure: AMT is purchased from Sigma Chem. Co., St. Louis, Mo. A stock solution of 5 mg/mL AMT is prepared in de-ionized water. An amplification cocktail is prepared containing 200 picomoles of primers Tb11 and Tb12 (Devallois et al., J. Clin. Microbiol., 35:2669-73 (1997)), 1.25 units of Taq polymerase/100 μL, 200 μM dNTPs and 0.05 mg/mL AMT in a Tris-EDTA buffer, pH 7. A corresponding solution without AMT is prepared as a control.
Amplification is performed in Eppendorf tubes to which are added 0.5 μg of whole genomic mycobacterial DNA in 50 μl of buffer and either 1 μl or 10 μl of the amplification cocktail. Final volume is adjusted to 100 μl with the aqueous buffer solution (without AMT) so that the final concentrations of all PCR components, except AMT, is the same in all replicates. Controls received an amplification cocktail without AMT.
PCR amplification is performed for 45 cycles (92° C.-56° C.-72° C.; denaturation, annealing, extension) and the product analyzed by gel electrophoresis. […]

The next experiment deals with nucleic acids. As to conditions: Haq et al. 1997; cited from earlier work.

Each structure is given as a SMILES string. Some results are limits rather than exact numbers.

In the case of `O=P(O)(O)O` [phosphate ion], the “inhibitory concentration for a transcription mediated reaction” value in experiment [1] is on record as “about 0.7 mM”. Further, in the experiment with ligase chain reaction, the “concentration inhibitory for a ligase chain reaction” value is given as “above 1.2 mM”.
With `Cc1oc2c(C)c3oc(=O)cc(C)c3cc2c1CN` [AMT, 4′-aminomethyltrioxsalen], in experiment [2] (0.5 μg/mL AMT, 45 cycles), the “amplification product in PCR” value is on record as “detectable amplification product is produced”. Further, the “inhibition of the PCR” value in experiment [2] (5 μg/mL AMT, 45 cycles) is “complete inhibition”. For the same molecule, the “amount of amplification product” value in experiment [2] (lower concentrations of AMT: 5 ng/mL and 0.5 ng/mL) is listed as “continues to increase”.
Regarding `CN1CCN(c2ccc3[nH]c(-c4ccc5[nH]c(-c6ccc(O)cc6)nc5c4)nc3c2)CC1` [Hoechst 33258], the “affinity for nucleic acid” value in the experiment on nucleic acids was not above 3.2e+08 M⁻¹.

The values above are taken from patent publication US6379930B1, “Stabilization of nucleic acid amplification cocktails” (Applied Gene Technologies, Inc., priority 1999, dated 2002).
